Laboratory results published in PubChem BioAssay AID389 (SGCOxCompounds, 2006).

Molecular target: Serine/threonine-protein kinase PAK 4 (Homo sapiens) (UniProt O96013)
Test: PAK4 kinase ligand binding by thermal shift, biophysical, human, DSF, SYPRO orange (AID 389)
Conditions: recombinant PAK4 DSF thermal shift, at 10 µM, protein 2 µM, buffer 10 mM HEPES, pH 7.5, NaCl 150 mM, active compounds read high

Chain of Serine/threonine-protein kinase PAK 4 (Homo sapiens) (O96013 whole entry, looked up): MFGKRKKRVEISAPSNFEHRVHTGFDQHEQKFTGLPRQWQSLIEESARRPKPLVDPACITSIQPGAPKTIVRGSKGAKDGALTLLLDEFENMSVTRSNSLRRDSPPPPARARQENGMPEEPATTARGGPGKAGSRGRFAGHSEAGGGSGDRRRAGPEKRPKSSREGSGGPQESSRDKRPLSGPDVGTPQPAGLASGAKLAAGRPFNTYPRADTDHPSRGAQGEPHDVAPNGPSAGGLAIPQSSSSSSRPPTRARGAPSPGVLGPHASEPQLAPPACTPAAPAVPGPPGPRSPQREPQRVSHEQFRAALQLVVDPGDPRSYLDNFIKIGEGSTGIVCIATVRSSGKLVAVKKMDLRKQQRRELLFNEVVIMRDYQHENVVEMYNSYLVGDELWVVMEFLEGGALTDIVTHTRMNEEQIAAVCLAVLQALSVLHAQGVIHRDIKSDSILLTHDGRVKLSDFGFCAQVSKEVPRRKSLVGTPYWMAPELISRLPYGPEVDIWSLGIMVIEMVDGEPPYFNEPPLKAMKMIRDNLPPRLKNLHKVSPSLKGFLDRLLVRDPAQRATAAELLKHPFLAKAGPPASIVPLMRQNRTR

Row | SMILES | Tm shift [Celsius]
1 | CC(C)n1cnc2c(Nc3cccc(Cl)c3)nc(NCCO)nc21 | 3.7
2 | Cn1cc(/C=C2\C(=O)Nc3ccc(S(N)(=O)=O)cc32)c2ccccc21 | 3.69
3 | N=C(N)SCCCn1cc(C2=C(c3c[nH]c4ccccc34)C(=O)NC2=O)c2ccccc21 | 3.43
4 | CCN(CC)CCNC(=O)c1c(C)[nH]c(/C=C2\C(=O)Nc3ccc(Cl)cc32)c1C | 6.4
5 | Clc1ccc(-c2cnc3ccc(NC4CCOCC4)nn23)cc1 | 3.1
6 | OCC(O)CCO/N=C1/C(c2c(O)[nH]c3ccccc23)=Nc2ccccc21 (stereo not drawn) | 4.7
7 | N#CCCc1ccc2c(c1)-c1[nH]c3ccc(-n4oo4)cc3c1CC(=O)N2 | 3.68
8 | NCCNc1ncc(C(N)=O)c(Nc2cccc(C(F)(F)F)c2)n1 | 5.9
9 | CC(O)(O)C1(O)C[C@@H]2O[C@@]1(C)n1c3ccccc3c3c4c(c5c6ccccc6n2c5c31)C(=O)NC4 (stereo partly drawn) | 3.9
10 | NS(=O)(=O)c1ccc(Nc2nc(OCC3CCCCC3)c3[nH]cnc3n2)cc1 | 3.8
11 | CC(C)C(CO)Nc1nc(Nc2cccc(Cl)c2)c2ncn(C(C)C)c2n1 (stereo not drawn) | 4.7
12 | CCn1cnc2c(Nc3cccc(Cl)c3)nc(N[C@@H]3CCCC[C@@H]3N)nc21 | 6.44
13 | O=c1[nH]c(O)c2c1c1c3ccccc3nc1n1cncc21 | 3.8
14 | NCCCn1cc(C2=C(c3c[nH]c4ccccc34)C(=O)NC2=O)c2ccccc21 | 4.27
15 | O=C(c1ccc(Nc2nccc(-c3cc4ccccc4s3)n2)cc1)N1CCC(N2CCCC2)CC1 | 3.23
16 | Cc1cc(Nc2nc(-c3ccccc3)nc3ccccc23)n[nH]1 | 5.9
17 | O=C1NCc2c1c1c3ccccc3[nH]c1c1[nH]c3ccccc3c21 | 3.8
18 | Nc1nc(Nc2ccc(S(N)(=O)=O)cc2)nn1C(=S)Nc1c(F)cccc1F | 6.03
19 | NC(=O)Nc1sc(-c2ccccc2)cc1C(N)=O | 4.28
20 | COc1cc(/C=C/C(=O)CC(=O)/C=C/c2ccc(O)c(OC)c2)ccc1O | 3.34
21 | O=C1NC(=O)c2c1c1c3ccccc3n3c1c1c2c2ccccc2n1[C@@H]1CCC3O1 | 4.92
22 | O=C1Cc2c([nH]c3ccc(Br)cc23)-c2ccccc2N1 | 4.62
23 | O=Nc1c(-c2c(O)[nH]c3ccc(I)cc23)[nH]c2ccccc12 | 3.73
